The source of these data is PMC10650415, “Synthesis of Tetracyclic Spirooxindolepyrrolidine-Engrafted Hydantoin Scaffolds: Crystallographic Analysis, Molecular Docking Studies and Evaluation of Their Antimicrobial, Anti-Inflammatory and Analgesic Activities” (Molecules, 2023).

In one data set the test system is C. albicans ATCC 90028. Kind of data set: MFC by the agar method. The following applies: for MFC: Candida albicans, ATCC90028; for MFC/MIC ratio: C. Albicans, ≤ 4 fungicidal, >4 fungistatic.
Another data set concerns C. kreusei ATCC 6258. The data set can be described thus: MFC by the agar method. The following applies: for MFC: Pichia kudriavzevii, ATCC6258; for MFC/MIC ratio: C. Krusei, ≤ 4 fungicidal, >4 fungistatic.
Data set [1] deals with Micrococcus luteus NCIMB 8166. The data set can be described thus: MIC, in vitro micro diffusion method. It is filed as cell-based. The following applies: NCIMB8166, M. luteus NCIMB 8166. From the text: (§1) In this part, the spiropyrrolidines 4a–m were selected to be screening for their antimicrobial activities, using in vitro micro diffusion method, against multiple bacterial strains (Staphylocoocus aureus ATCC 25923, Escherichia coli ATCC 25922, Pseudomonas aeruginosa ATCC 27950, Micrococcus luteus NCIMB 8166), and two pathogenic reference yeasts namely Candida albicans ATCC 90028 and Candida kreusei ATCC 6258.

Data set [2] addresses T1, Lipoxygenase-5 (LOX-5) enzyme (Homo sapiens, UniProt P09917).
T1 construct: purchased sigma 437996-500U
T1 sequence (P09917 1-674): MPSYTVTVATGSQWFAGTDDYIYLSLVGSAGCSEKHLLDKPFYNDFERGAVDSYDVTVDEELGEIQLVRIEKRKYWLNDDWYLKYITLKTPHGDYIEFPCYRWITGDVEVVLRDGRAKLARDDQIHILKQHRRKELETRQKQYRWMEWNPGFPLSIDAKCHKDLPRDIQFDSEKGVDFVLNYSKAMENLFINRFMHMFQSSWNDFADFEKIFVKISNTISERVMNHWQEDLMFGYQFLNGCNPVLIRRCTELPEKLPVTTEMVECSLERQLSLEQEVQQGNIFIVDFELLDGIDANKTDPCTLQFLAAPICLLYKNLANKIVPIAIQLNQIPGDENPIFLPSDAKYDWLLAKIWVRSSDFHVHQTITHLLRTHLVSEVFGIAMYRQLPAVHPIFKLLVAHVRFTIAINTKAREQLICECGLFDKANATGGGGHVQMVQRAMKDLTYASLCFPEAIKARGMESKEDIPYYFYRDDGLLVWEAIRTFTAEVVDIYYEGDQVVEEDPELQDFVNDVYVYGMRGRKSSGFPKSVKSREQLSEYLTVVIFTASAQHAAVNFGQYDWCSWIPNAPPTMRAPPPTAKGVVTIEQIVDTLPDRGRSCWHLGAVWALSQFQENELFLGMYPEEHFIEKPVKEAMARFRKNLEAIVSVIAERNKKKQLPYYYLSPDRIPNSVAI
Kind of data set: In vitro lipoxygenase (LOX-5) inhibitory assay. The following applies: mean ± SEM, n = 5; read-out: IC50 (LOX-5 inhibition) (converted). It is filed as biochemical. How it is done:
Lipoxygenases are a family of monomeric proteins that catalyze oxidation of polyunsaturated fatty acids (PUFA) (linoleic, linolenic and arachidonic acid) to produce hydroperoxides. Fractions’ anti-LOX activity was also measured as inhibition of linoleic acid’s peroxidation to hydroperoxylinoleic acid.
To evaluate the prospects of the newly synthesized spirooxindoles as promising drug candidates, we first studied their inhibitory potency against the Lipoxygenase-5 (LOX-5) enzyme.

The test system of another data set is P. aeruginosa ATCC 27950. The data set can be described thus: MBC by the agar method. The following applies: Pseudomonas aeruginosa, ATCC27950.
Data set [3] concerns Escherichia coli ATCC 25922. Kind of data set: MIC, in vitro micro diffusion method. Type of data set: cell-based. The following applies: ATCC25922, E. coli ATCC 25922.
For another data set, the system named is S. aureus ATCC 25923. Kind of data set: MBC by the agar method. The following applies: Staphylococcus aureus, ATCC25923.
The next data set has as its system M. luteus NCIMB 8166. The data set can be described thus: MBC by the agar method. The following applies: for MBC/MIC ratio: M. luteus, ≤ 4 bactericidal, >4 bacteriostatic; for MBC: Micrococcus luteus, NCIMB8166.
A further data set relates to E. coli ATCC 25922. The data set can be described thus: MBC by the agar method.
Data set [4] has as its system Candida albicans ATCC 90028. The data set can be described thus: MIC, in vitro micro diffusion method. Type of data set: cell-based. The following applies: ATCC90028, C. albicans ATCC 90028.
Text: as §1

The subject of data set [5] is Staphylocoocus aureus ATCC 25923. The data set can be described thus: MIC, in vitro micro diffusion method. It is filed as cell-based. The following applies: Staphylococcus aureus, ATCC25923; S. aureus ATCC 25923.
Text: as §1

For data set [6], the system named is Candida kreusei ATCC 6258. The data set can be described thus: MIC, in vitro micro diffusion method. It is filed as cell-based. The following applies: C. krusei ATCC 6258.
Text: as §1

On the set-up of data set [7]: method as in doi:10.1002/slct.201901228. The following applies: read-out: IC50 (anti-inflammatory efficacy); cited from earlier work.
[8] abbreviates: Escherichia coli, ATCC25922, E. coli ATCC 25922.

In brackets after ≈: the same amount, converted by molar mass.

Description for C. albicans ATCC 90028: (§2) To further determine the killing efficiency of the synthesized spiropyrrolidines against selected strains, the minimum bactericidal concentration (MBC) and the minimum fungicidal concentration (MFC) were assessed by the agar method [54].
Description for C. kreusei ATCC 6258: as §2
Description for E. coli ATCC 25922: as §2
Description for M. luteus NCIMB 8166: as §2
Description for P. aeruginosa ATCC 27950: as §2
Description for S. aureus ATCC 25923: as §2

The compound `COc1ccc([C@H]2[C@H](c3ccccc3)N[C@@]3(C(=O)Nc4ccc(Cl)cc43)[C@@]23NC(=O)NC3=O)cc1` (racemic) [4c] showed a melting point of 211 °C. Besides, in the data set on C. albicans ATCC 90028, the MFC was determined as 46.9 µg/mL (≈ 95.9 µM). Also, the MFC against C. kreusei ATCC 6258 was > 1500 µg/mL. Moreover, in data set [1], the MIC turned out to be 93.8 µg/mL (≈ 192 µM). Further, in data set [2], the IC50 was 4.42 mM. Moreover, the MBC in the data set on P. aeruginosa ATCC 27950 was found to be 93.8 µg/mL (≈ 192 µM). In [3], this compound had an MIC of 188 µg/mL (≈ 383 µM). The compound also gave an MBC against S. aureus ATCC 25923 of 188 µg/mL (≈ 383 µM). Further, in the data set on M. luteus NCIMB 8166, the MBC/MIC ratio is 8 and the MBC is 750 µg/mL (≈ 1530 µM). In the data set on E. coli ATCC 25922 (setting [8]), this compound returned an MBC of 188 µg/mL (≈ 383 µM).

Regarding `O=C1NC(=O)[C@]2(N1)[C@@H](c1ccc(Cl)cc1)[C@H](c1ccccc1)N[C@@]21C(=O)Nc2ccccc21` (racemic) [4e], the melting point came out at 235 °C. For the same compound, in the data set on C. albicans ATCC 90028, the MFC/MIC ratio is ≤ 4 and the MFC came to 23.4 µg/mL (≈ 51.1 µM). Moreover, in the data set with C. kreusei ATCC 6258, the MFC/MIC ratio is reported as ≤ 4 and the MFC amounted to 46.9 µg/mL (≈ 102 µM). Further, the minimal inhibitory concentration (MIC) in [4] was determined as 23.4 µg/mL (≈ 51.1 µM). The same compound came in with an MIC in data set [5] of 46.9 µg/mL (≈ 102 µM). In addition, in data set [6], the MIC stood at 46.9 µg/mL (≈ 102 µM). The IC50 in [2] was 3.86 mM. Also, the MBC against P. aeruginosa ATCC 27950 was 188 µg/mL (≈ 409 µM). For the same compound, the MBC in the data set with S. aureus ATCC 25923 amounted to 93.8 µg/mL (≈ 204 µM). The MBC with M. luteus NCIMB 8166 was > 1500 µg/mL. The MBC against E. coli ATCC 25922 (setting [8]) is 750 µg/mL (≈ 1630 µM).

`O=C1NC(=O)[C@]2(N1)[C@@H](c1ccc(Br)cc1)[C@H](c1ccccc1)N[C@@]21C(=O)N(Cc2ccccc2)c2ccccc21` (racemic) [4g] displayed a melting point of 223 °C. Further, in the data set with C. albicans ATCC 90028, the MFC/MIC ratio is recorded as ≤ 4 and the MFC stood at 93.8 µg/mL (≈ 158 µM). For the same compound, in the data set on C. kreusei ATCC 6258, the MFC/MIC ratio is ≤ 4 and the MFC came to 93.8 µg/mL (≈ 158 µM). This compound registered an MIC in [5] of 23.3 µg/mL (≈ 39.3 µM). The same compound registered an MIC in data set [1] of 93.8 µg/mL (≈ 158 µM). Further, in data set [2], the IC50 is 8.36 mM. The compound further yielded an MBC in the data set with P. aeruginosa ATCC 27950 of 188 µg/mL (≈ 316 µM). Besides, the MBC in the data set on S. aureus ATCC 25923 was found to be 46.9 µg/mL (≈ 79 µM). In addition, in the data set with M. luteus NCIMB 8166, the MBC/MIC ratio is listed as 8 and the MBC was > 1500 µg/mL. Further, in the data set on E. coli ATCC 25922 (E. coli ATCC 25922), the MBC is 375 µg/mL (≈ 632 µM). This compound also yielded an MBC in the data set on E. coli ATCC 25922 (setting [8]) of 188 to 374 µg/mL (≈ 316 to 630 µM).

For the compound `O=C1NC(=O)[C@]2(N1)[C@@H](c1ccccc1O)[C@H](c1ccccc1)N[C@@]21C(=O)Nc2ccc(Cl)cc21` (stereo in doubt) [4m], the melting point was 223 °C. Further, in the data set on C. albicans ATCC 90028, the MFC/MIC ratio is recorded as ≤ 4 and the MFC came to 93.8 µg/mL (≈ 197 µM). Further, in the data set with C. kreusei ATCC 6258, the MFC/MIC ratio is ≤ 4 and the MFC came out at 93.8 µg/mL (≈ 197 µM). Also, in [1], the MIC was determined as 93.8 µg/mL (≈ 197 µM). The IC50 in [2] was 2.99 mM. Moreover, in the data set with P. aeruginosa ATCC 27950, the MBC came to 188 µg/mL (≈ 395 µM). Moreover, in [3], the MIC came out at 188 µg/mL (≈ 395 µM). The compound further registered a minimum bactericidal concentration (MBC) with S. aureus ATCC 25923 of 93.8 µg/mL (≈ 197 µM). Also, the MBC in the data set on M. luteus NCIMB 8166 came out at 188 µg/mL (≈ 395 µM). The compound also yielded an MBC with E. coli ATCC 25922 (E. coli ATCC 25922) of 375 µg/mL (≈ 790 µM). The compound also had a minimal bactericidal concentration (MBC) with E. coli ATCC 25922 (setting [8]) of 188 to 374 µg/mL (≈ 395 to 788 µM).

Take `C[C@@H]1[C@H](O)[C@@H](C)/C=C/C=C/C=C/C=C/C=C/C=C/C=C/[C@H](O[C@@H]2O[C@H](C)[C@@H](O)[C@H](N)[C@@H]2O)C[C@@H]2O[C@](O)(C[C@@H](O)C[C@@H](O)[C@H](O)CC[C@@H](O)C[C@@H](O)CC(=O)O[C@H]1C)C[C@H](O)[C@H]2C(=O)O` [Amphotericin B, reference compound]: the results for the MFC in the data set on C. albicans ATCC 90028 and in the data set with C. kreusei ATCC 6258 were 500 µg/mL (≈ 541 µM) and 62.5 µg/mL (≈ 67.6 µM), respectively. In addition, in data set [6], inhibition of growth (MIC) required 62.5 µg/mL (≈ 67.6 µM).

With `O=C1/C(=C/c2cccc(F)c2)CCC[C@@]12[C@H](c1cccc(F)c1)[C@@H]1CSCN1[C@]21C(=O)Nc2ccccc21` [IVc], the half-maximal inhibitory concentration (IC50) in data set [7] was 0.0024 ± 0.0013 mM.

`CC(C)Cc1ccc(C(C)C(=O)O)cc1` (centres unmarked) [ibuprofen]: the IC50 in [7] was 0.0112 ± 0.0019 mM.

A word on the MIC: it is the lowest concentration found to suppress growth. Low values mean inhibition by little substance, high ones a need for much substance. The IC50 is the concentration at which inhibition is half-maximal. As usually defined, the MBC is the smallest concentration meeting the test's criterion for killing. Higher therefore signals weaker bactericidal potency. One may read the melting point as the temperature of the solid-liquid transition.
